Literature values, collected in patent US20070043208A1, “Crystal structure of erythrocyte binding domain of EBA-175” (priority 2003, published 2007).

Tested on: P. falciparum
Details: DNA plasmid prime and recombinant protein boost regimen

RII: 73 kDa erythrocyte-binding domain (616 amino acid fragment) of P. falciparum EBA-175
monkeys protected from P. falciparum challenge: 3 of 4
